One may read the pIC50 as the negative decadic logarithm of the IC50, by convention in mol/L. Lower therefore signals a high IC50.

pIC50: −log10 of the molar value. A value given as a limit tells only on which side of the number the result lay.

These results are taken from patent publication US11696928B2, “Compounds and use thereof in the expansion of stem cells and/or progenitor cells” (UNIVERSITE DE MONTREAL, priority 2017, dated 2023).

The subject of data set [1] is Human CD34+ cord blood (CB) cells. The data set is described as follows: Assessment of engraftment and myeloid vs lymphoid lineage contribution in vivo. More on the design: species or system NSG mice.
Data set [2] deals with T1, AhR (Homo sapiens, UniProt P35869).
T1 construct: One of the resultant clones was named HEK-XRE 11.1, and used in the reporter gene assays; endogenous in cells; host or cells: HEK-XRE 11.1 (HEK cells stably carrying the AhR-responsive luciferase reporter X4-4.27 and phRL-CMV)
T1 sequence (P35869 11-848): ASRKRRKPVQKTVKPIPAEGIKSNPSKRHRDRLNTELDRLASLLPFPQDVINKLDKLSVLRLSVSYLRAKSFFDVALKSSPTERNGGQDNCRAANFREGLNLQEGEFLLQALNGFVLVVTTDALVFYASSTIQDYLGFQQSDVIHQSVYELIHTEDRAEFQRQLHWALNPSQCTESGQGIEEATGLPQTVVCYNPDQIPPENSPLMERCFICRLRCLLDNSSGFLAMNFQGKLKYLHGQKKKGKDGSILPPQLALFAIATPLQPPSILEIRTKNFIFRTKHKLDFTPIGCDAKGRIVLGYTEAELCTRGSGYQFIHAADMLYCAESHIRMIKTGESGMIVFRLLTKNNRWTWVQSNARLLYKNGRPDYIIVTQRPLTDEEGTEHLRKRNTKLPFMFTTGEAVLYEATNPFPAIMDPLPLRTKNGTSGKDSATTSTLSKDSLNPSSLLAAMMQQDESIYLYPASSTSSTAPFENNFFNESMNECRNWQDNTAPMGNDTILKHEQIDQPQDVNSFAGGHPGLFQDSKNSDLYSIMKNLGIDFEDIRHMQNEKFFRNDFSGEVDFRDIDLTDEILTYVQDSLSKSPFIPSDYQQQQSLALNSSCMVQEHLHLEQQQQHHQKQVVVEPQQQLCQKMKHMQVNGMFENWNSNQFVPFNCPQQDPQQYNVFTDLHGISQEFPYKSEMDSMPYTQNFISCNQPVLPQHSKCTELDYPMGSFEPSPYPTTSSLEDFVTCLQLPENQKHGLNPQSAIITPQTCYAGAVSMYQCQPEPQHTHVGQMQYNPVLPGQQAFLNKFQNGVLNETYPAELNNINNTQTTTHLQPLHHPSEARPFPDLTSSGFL
The data set is described as follows: Inhibition of AhR-mediated gene transcription (HEK-XRE 11.1 luciferase reporter, MeBIO induction). Format: cell-based. The following applies: HEK-XRE 11.1 cells, MeBIO 0.1 nM, luminescence after 24 hours. An outline of the steps:
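HEK-XRE 11.1 cells, stably carrying an AhR-responsive firefly luciferase reporter, were stimulated with 0.1 nM MeBIO and given compounds in 8-point 1:3 serial dilutions from 10 mM (stock-range figure) in duplicate. Luminescence was read after 24 h culture without Renilla normalisation. Dose-response curves were fitted by nonlinear regression.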

Data set [3] has as its system Human CD34+ cord blood (CB) cells. The data set is described as follows: CD34+ activity assessment (7-day expansion of pre-expanded CD34+ cells, flow cytometry). The data set is classed as cell-based. As to conditions: concentration at which compound/vehicle ratio of CD34+ cell number is >= 1.5, 7 days, with 35 nM UM0128171.
The test system is the same in data set [4]. The data set is described as follows: Assessment of cell composition in vitro (7-day culture of CB CD34+ cells). The following applies: for expansion of CD34+CD45RA+ cells: alone or in combination with UM171, 7 days, FIGS. 1B, 1C and 1D; for overall percentage of CD34+ cells in cultures: combined use with UM171, 7 days, FIG. 1A right panel and FIG. 1D; for percentage of Dendritic Cells and Mast Cells: combined use with UM171, compared to Compounds used alone, FIG. 1D.

With `Nc1c(C(=O)Nc2ccccc2)sc2nc3c(cc12)CCC3` [Compound 1001], the “engraftment of expanded CB cells in the long term (12 and 20 weeks post transplantation)” value in data set [1] (CB cells expanded 7 days, alone or in combination with UM171, NSG mice bone marrow, FIG. 2A) is recorded as “engrafted with higher efficiency in the long term”. In addition, the “contribution of lymphoid lineage” value in data set [1] (engrafted human CB cells in NSG mice, FIG. 2B) is on record as “greatly increased”. The same molecule gave a pIC50 in data set [2] (Table 1) greater than 7.30. In addition, in data set [3] (Table 1), the EC1.5 is less than 100 nM. The “number of CD34+ cells in CB cultures” value in data set [4] (7 days culture, compared to other conditions, FIG. 1A middle) is given as “increases the number of CD34+ cells”. Further, in data set [4], the “expansion of CD34+CD45RA+ cells” value was “favors the expansion of CD34+CD45RA+ cells”; the “overall percentage of CD34+ cells in cultures” value was “increased the overall percentage of CD34+ cells”; the “percentage of Dendritic Cells and Mast Cells” value was “increased the percentage of Dendritic Cells and Mast Cells”.
With `COc1ccc(NC(=O)c2sc3ncc(C)cc3c2N)cc1` [Compound 1114], the negative-log IC50 (pIC50) in data set [2] (Table 1) is greater than 7.30. The EC1.5 in data set [3] (Table 1) is listed as less than 100 nM. For the same molecule, in data set [4], the “expansion of CD34+CD45RA+ cells” value is “favors the expansion of CD34+CD45RA+ cells”; the “overall percentage of CD34+ cells in cultures” value is listed as “increased the overall percentage of CD34+ cells”; the “percentage of Dendritic Cells and Mast Cells” value is “increased the percentage of Dendritic Cells and Mast Cells”.
The molecule `Cc1ccc(NC(=O)c2sc3ccc(C)cc3c2N)cc1` [Compound 1131] had a pIC50 in data set [2] (Table 1) of 6.30 to 7.30. The EC1.5 in data set [3] (Table 1) was greater than 5000 nM.
On the same counts, the results for `Cc1ccc2sc(C(=O)Nc3ccc(Br)cc3)c(N)c2c1` [Compound 1132] are 6.30 to 7.30 and greater than 5000 nM.
Taken in the same sequence, the figures for `COc1ccc(NC(=O)c2sc3ncc(C)cc3c2N)cc1Cl` [Compound 1135] were greater than 7.30 and less than 100 nM.
In data set [2] (Table 1), `COc1ccc(NC(=O)c2sc3ccc(C(F)(F)F)cc3c2N)cc1Cl` [Compound 1136] showed a pIC50 greater than 7.30. In addition, the EC1.5 in data set [3] (Table 1) is greater than 5000 nM.
On the same counts, the results for `Cc1cnc2sc(C(=O)Nc3ccc(C(F)(F)F)cc3)c(N)c2c1` [Compound 1137] are greater than 7.30 and less than 100 nM.
`Nc1c(C(=O)Nc2ccc(C(F)(F)F)cc2)sc2ccc(C(F)(F)F)cc12` [Compound 1138] showed a pIC50 in data set [2] (Table 1) of 6.30 to 7.30. For the same molecule, the EC1.5 in data set [3] (Table 1) is on record as greater than 5000 nM.
Taken in the same sequence, the figures for `Cc1cnc2sc(C(=O)Nc3cccc(Cl)c3)c(N)c2c1` [Compound 1139] were greater than 7.30 and 100 to 1000 nM.
For the molecule `Cc1cccc(NC(=O)c2sc3ncc(C)cc3c2N)c1` [Compound 1140], the pIC50 in data set [2] (Table 1) was 6.30 to 7.30. The EC1.5 in data set [3] (Table 1) is 100 to 1000 nM.
For `Cc1cnc2sc(C(=O)Nc3ccc4c(c3)OCCO4)c(N)c2c1` [Compound 1141], the pIC50 in data set [2] (Table 1) was 6.30 to 7.30. In data set [3] (Table 1), the EC1.5 fell in the range of 100 to 1000 nM.
The molecule `CCOc1ccc(NC(=O)c2sc3ncc(C)cc3c2N)cc1` [Compound 1142] gave a pIC50 in data set [2] (Table 1) greater than 7.30. Moreover, the EC1.5 in data set [3] (Table 1) was in the range of 100 to 1000 nM.
On the same counts, the results for `CSc1ccc(NC(=O)c2sc3ncc(C)cc3c2N)cc1` [Compound 1143] are greater than 7.30 and less than 100 nM.
Taken in the same sequence, the figures for `Nc1c(C(=O)Nc2cccc(Cl)c2)sc2ccc(C(F)(F)F)cc12` [Compound 1144] were greater than 7.30 and greater than 5000 nM.
Taken in the same sequence, the figures for `Cc1cccc(NC(=O)c2sc3ccc(C(F)(F)F)cc3c2N)c1` [Compound 1145] were 6.30 to 7.30 and greater than 5000 nM.
Turning to `Nc1c(C(=O)Nc2ccc3c(c2)OCCO3)sc2ccc(C(F)(F)F)cc12` [Compound 1146], the pIC50 in data set [2] (Table 1) was 6.30 to 7.30. The EC1.5 in data set [3] (Table 1) is greater than 5000 nM.
On the same counts, the results for `CCOc1ccc(NC(=O)c2sc3ccc(C(F)(F)F)cc3c2N)cc1` [Compound 1147] are 6.30 to 7.30 and greater than 5000 nM.
Taken in the same sequence, the figures for `CSc1ccc(NC(=O)c2sc3ccc(C(F)(F)F)cc3c2N)cc1` [Compound 1148] were 6.30 to 7.30 and 100 to 1000 nM.
Taken in the same sequence, the figures for `Cc1cnc2sc(C(=O)Nc3ccc(OC(F)(F)F)cc3)c(N)c2c1` [Compound 1149] were greater than 7.30 and 100 to 1000 nM.
Molecule `Cc1cnc2sc(C(=O)Nc3ccsc3)c(N)c2c1` [Compound 1150] showed a pIC50 in data set [2] (Table 1) greater than 7.30. The EC1.5 in data set [3] (Table 1) lay within 100 to 1000 nM.
Taken in the same sequence, the figures for `Cc1ccc2sc(C(=O)Nc3ccc(OC(F)(F)F)cc3)c(N)c2c1` [Compound 1151] were 6.30 to 7.30 and greater than 5000 nM.
On to `Nc1c(C(=O)Nc2ccsc2)sc2ccc(C(F)(F)F)cc12` [Compound 1152], for which the negative logarithm of the IC50 (pIC50) in data set [2] (Table 1) is greater than 7.30. Also, in data set [3] (Table 1), the EC1.5 was greater than 5000 nM.
For the molecule `Nc1c(C(=O)Nc2ccc(F)cc2)oc2ncc(C(F)(F)F)cc12` [Compound 1154], the pIC50 in data set [2] (Table 2) was greater than 7.30. In addition, in data set [3] (Table 2), the EC1.5 is 100 to 1000 nM.
